Records with an inconclusive call do not appear. The source made the active and inactive calls.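 How the source made its calls: active means fitted activation curve crossing 40% at a concentration no higher than the sample's top valid tested dose; inconclusive means flat fitted curve at 30% to 70% activation, or poor curve fit; inactive means signal decrease, flat curve within 30%, or the rest.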
Each molecule was assayed on NIH3T3-HGL HSF-1 response element luciferase, 48 h (assay: sustained heat shock response element induction – cell-based, mouse, luciferase, cherry-pick, dose, confirmation (AID 602296);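 further: test compounds applied by themselves with no MG132 co-treatment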).

SMILES	AC40
CCN(CC)C(=O)Oc1ccc(Br)cc1C(=O)Nc1ccc(F)cc1F	> 26 µM (inactive)
Cc1cccc(N=Nc2c(C)c(C#N)c(O)[nH]c2=O)c1	> 26 µM (inactive)
CC(C)[C@H](NC(=O)OC(C)(C)C)c1nnc(SCC(=O)Nc2ccc(Br)cc2)o1	> 26 µM (inactive)
COc1cccc(N=Nc2c(O)[nH]c(=S)[nH]c2=O)c1	10.1 µM
COc1cccc(N=CC2=C(O)CC(C)(C)CC2=O)c1	> 26 µM (inactive)
Cc1cc(C)cc(Oc2ccccc2/C=C\C(=O)O)c1	> 26 µM (inactive)
CCC1Oc2ccc(C)cc2N(Cc2cccc(C)c2)C1=O (stereo not drawn)	13.1 µM
C/C(Cl)=C/Cc1c(C)[nH]c2ccc(C)cc2c1=O	11.2 µM
C[C@]12CC[C@@H]3c4cc(O)c(O)cc4CC[C@H]3[C@@H]1CC[C@@H]2O	25.2 µM
COc1cc(/C=N/N2C(=O)c3ccccc3NC2(C)c2cccc([N+](=O)[O-])c2)cc(Br)c1O (stereo not drawn)	> 26 µM (inactive)
Cc1cnn(-c2cc(N/N=C/c3cccc(F)c3)ncn2)c1	9.32 µM
CCN(CC(=O)Nc1ccc(NC(C)=O)cc1)Cc1c(O)ccc2cc(Br)ccc12	25.2 µM
CC(=O)c1cccc(N(CC(=O)Nc2ccc(F)cc2F)S(C)(=O)=O)c1	5.46 µM
ON=C1c2ccccc2-c2ccccc21	15.8 µM
O=C(COC(=O)C1CSC2(c3ccc(F)cc3)CCC(=O)N12)NC(=O)NC1CCCC1 (stereo not drawn)	> 26 µM (inactive)
CCCCOc1ccc(-c2nc(/C=N/c3nccs3)c(O)o2)cc1	18.4 µM
COc1ccc(Cc2nnc(SCC(=O)Nc3ccc(N4CCOCC4)cc3)o2)cc1	> 26 µM (inactive)
Cn1ccc(C(=O)N/N=C/c2ccncc2)n1	14.3 µM
O=c1[nH]c(N2CCN(c3ccccc3)CC2)nc2c1CCC2	> 26 µM (inactive)
COC(=O)CC/C(O)=C1/C(=N)CC(C)(C)CC1=O	> 12 µM (inactive)
COc1ccc(/C=C/C(=O)N(C(C)C)C(C)C)cc1Br	6.82 µM
Cc1ccc(S(=O)(=O)N(CC(=O)NCc2ccco2)Cc2ccc(F)cc2)cc1	> 26 µM (inactive)

SMILES	AC40
COCCCNC(=O)c1ccc(NS(C)(=O)=O)cc1	> 26 µM (inactive)
C=CCNC(=S)N/N=C/c1ccc(-c2ccc(Br)cc2)o1	22 µM
CCC1(C)N=C(N)Nc2nc3cc(C)c(C)cc3n21 (stereo not drawn)	24.5 µM
COc1cccc(CN2CC(C(=O)NCc3ccc(C)o3)CCC2=O)c1 (stereo not drawn)	> 26 µM (inactive)
CCCNC(=O)NC(=O)CSc1cccc(C(F)(F)F)c1	13.5 µM
CC(C)(CNC(=O)/C=C/c1ccc(F)cc1)CNC(=O)/C=C/c1ccc(F)cc1	> 26 µM (inactive)
CC12CCC3C(CC=C4CC(O)CCC43C)C1C/C(=C\N1CCCC1)C2=O (stereo not drawn)	> 26 µM (inactive)
COC(=O)C(C)Sc1ncnc2c1nnn2-c1ccc(F)cc1 (stereo not drawn)	5.57 µM
O=C(CC(c1ccco1)S(=O)(=O)c1ccccc1)c1ccc(F)cc1 (stereo not drawn)	> 26 µM (inactive)
CC(C)(C)NC(=O)c1cccc(NC(=O)CSc2ccc(Cl)cc2)c1	> 26 µM (inactive)
CC1(C)CC(=O)C(C=Nc2cccnc2)=C(O)C1	> 26 µM (inactive)
c1ccc2[nH]c3cc4ncnc4cc3nc2c1	5.43 µM
O=C(/C=C/Sc1ccccc1)c1ccc(Cl)cc1	4.33 µM
Cc1cccc(NC(=O)CSc2nnc(-c3ccco3)c(-c3ccco3)n2)c1C	> 26 µM (inactive)
CN(NC1OC(=O)c2ccccc21)c1ncc(Cl)cc1C(F)(F)F (stereo not drawn)	> 26 µM (inactive)
Cn1c(=O)c(/C=C/c2ccc(F)cc2)nc2ccccc21	1.99 µM
C=CCOc1ccc(-c2nc3c(c(=O)[nH]c(=O)n3Cc3ccccc3)n2CCCOC)cc1	> 26 µM (inactive)
Cc1nn(C(CC(=O)O)C(=O)O)c(C)c1Br (stereo not drawn)	> 26 µM (inactive)
Cc1nc(SCCOc2ccc(F)cc2)c2ccccc2n1	3.44 µM
CCN(CC)C(=O)CSc1ncnc2sc(C)c(C)c12	> 26 µM (inactive)
COC(=O)c1cc(OC)c(OC)cc1NC(=S)NC(=O)c1ccco1	> 26 µM (inactive)
O=C1CCCN2N=C(SCC(=O)Nc3ccc(Br)cc3)SC2=N1	> 26 µM (inactive)

SMILES	AC40
Cc1ncc([N+](=O)[O-])n1CCOC(=O)c1cc(Cl)cc(Cl)c1N	> 26 µM (inactive)
Cc1ccccc1OCCCC(=O)Nc1ccccc1C(F)(F)F	> 26 µM (inactive)
CCSc1nnc(NC(=O)c2cccnc2Cl)s1	6.92 µM
Clc1ncnc2scc(C3COc4ccccc4O3)c12 (stereo not drawn)	17.7 µM
CC(=O)Nc1cccc(-n2nnc(SCC(=O)Nc3ccc(F)c(Cl)c3)n2)c1	> 26 µM (inactive)
Cc1ccc(NC2c3ncccc3C(=O)N2C2CCCCC2)cc1 (stereo not drawn)	> 26 µM (inactive)
CN(Cc1nnc(-c2ccc(F)cc2)o1)c1ccccc1	9.33 µM
Cc1sc2nc(C)n(/N=C/c3ccc(O)cc3O)c(=O)c2c1C	> 26 µM (inactive)
COc1cc(CC(=O)N(c2ccccc2)c2nc(C)cs2)cc(OC)c1OC	> 26 µM (inactive)
CC(C)c1ccc(C2NC(=O)c3ccccc3O2)cc1 (stereo not drawn)	5.17 µM
Cc1ccc(-n2c(SCC(=O)Nc3cc(S(=O)(=O)N4CCOCC4)ccc3Cl)nc3ccccc3c2=O)cc1	16 µM
NC(CSCc1cccc(Br)c1)C(=O)O (stereo not drawn)	> 26 µM (inactive)
CCC(=O)Nc1cccc(C(=O)/C=C/c2ccc(F)cc2)c1	11.2 µM
COc1ccccc1C(=O)CSc1nnc(-c2ccco2)o1	11.7 µM
COc1cccc(NC(=O)CSc2nc(N)cc(N)n2)c1	> 26 µM (inactive)
Cc1ccc(NC(=O)c2cc3c(=O)oc4ccccc4c3s2)nc1	> 26 µM (inactive)
COc1cccc(CNc2ccc(Br)cn2)c1O	12.2 µM
Cc1ccccc1CC(=O)NC1CCCc2ccccc21 (stereo not drawn)	> 26 µM (inactive)
C[C@H](NC(=O)[C@@H]1CSC2c3ccccc3C(=O)N21)C(=O)NCCc1ccccc1 (stereo partly drawn)	24.7 µM
NC(=O)Cc1ccc2c(c1)[nH]c1ccccc12	> 26 µM (inactive)
CC(C)NCC(O)COCc1ccc(Cl)cc1 (stereo not drawn)	> 26 µM (inactive)
O=[N+]([O-])c1cc([N+](=O)[O-])c(Oc2c(F)cccc2F)cc1NN1CCCCC1	> 26 µM (inactive)

SMILES	AC40
Cc1ccc(-c2nn(-c3cc(Cl)ccc3[N+](=O)[O-])c(=O)c3ccccc23)cc1	> 26 µM (inactive)
C/C(=N\NC(=O)c1ccoc1C)c1cccc2ccccc12	10.2 µM
O=C(NCCN1CCN(C(=O)c2ccc(Br)cc2)CC1)c1ccc(Br)cc1	> 26 µM (inactive)
N#CC(C#N)=C1C=CC=CN1/C(=C\c1ccccc1)C(=O)c1cccs1	12.3 µM
CC(C)(C)c1cc(NC(=O)CCSc2nnc3ccccn23)cc(C(C)(C)C)c1	> 26 µM (inactive)
O=C(NC1CCSc2ccccc21)c1ccccc1Cl (stereo not drawn)	6.46 µM
CN(C)CCCn1c(N)c(C#N)c2nc(C#N)c(C#N)nc21	> 12 µM (inactive)
CC(CCc1ccccc1)NC(=O)CN1CCc2ccccc2C1 (stereo not drawn)	> 26 µM (inactive)
O=c1/c(=C/c2ccccc2)sc2nnc(-c3cccs3)n12	> 26 µM (inactive)
CNC(=O)C1CC(=O)N(c2ccc(OCC(=O)N3CCCC3)cc2)C1 (stereo not drawn)	> 26 µM (inactive)
S=c1[nH]cc(Cc2ccccc2)s1	23.4 µM
COc1cnn(-c2cc(Oc3ccc(C)cc3)ncn2)c(=O)c1Cl	> 26 µM (inactive)
[O-]/[N+](=C\c1ccc(OC(F)F)cc1)c1ccccc1	> 26 µM (inactive)
CCOC(=O)C(CCOc1cccc(CC)c1)C(=O)OCC	> 26 µM (inactive)
CCCc1nc(SCC(=O)Nc2cc(C)on2)c2ccccc2n1	> 26 µM (inactive)
CC1(C)CC(=O)C(=Cc2cn(-c3ccccc3)nc2-c2ccccc2)C(=O)C1	14 µM
CCOC(=O)c1sc2nc(C)nc(SCC(=O)NC3CCS(=O)(=O)C3)c2c1C (stereo not drawn)	> 26 µM (inactive)
COc1ccc(C(=O)CC(=O)C(=O)Nc2cc(OC)c(OC)c(OC)c2)cc1	> 26 µM (inactive)
Oc1cccnc1Sc1cccc(C(F)(F)F)c1	> 26 µM (inactive)
O=C(c1ccc[nH]c1=S)N1CCN(S(=O)(=O)c2ccc(Br)cc2Cl)CC1	> 26 µM (inactive)
CNc1nc(SC(C)C(=O)Nc2ccc(Cl)c(Cl)c2)nc(N2CCOCC2)n1 (stereo not drawn)	> 26 µM (inactive)
Fc1cc(NCc2ccccc2)nc(NCc2ccccc2)n1	9.52 µM

SMILES	AC40
COCCCNC(=O)CCn1c(=O)c2ccccc2n(CC(=O)Nc2cc(Cl)ccc2C)c1=O	> 26 µM (inactive)
COc1ccc(NS(=O)(=O)c2cc(NC(=O)c3cnccn3)ccc2N2CCCC2)cc1	> 26 µM (inactive)
Cc1onc(-c2ccccc2)c1C(=O)OCc1nnc(-c2ccccc2)o1	> 26 µM (inactive)
O=c1[nH]c2c(s1)C=Nc1ccccc1N2	4.98 µM
O=C(Nc1ccccc1C(=O)OCC(=O)c1c[nH]c2ccccc12)c1ccco1	> 26 µM (inactive)
CC1(C)c2cc(O)ccc2OC1N1CCOCC1 (stereo not drawn)	> 26 µM (inactive)
CCOc1cc(/C=C2/SC(=S)N(CC3CCCO3)C2=O)ccc1O (stereo not drawn)	> 26 µM (inactive)
c1ccc(COc2ccccc2CNC2CCCC2)cc1	> 26 µM (inactive)
CC(C)n1cc(/C=N/NC(=O)COc2cccc3cccnc23)c2ccccc21	> 26 µM (inactive)
Cc1onc(-c2ccccc2)c1NC(=O)N(CCC#N)Cc1ccccc1	> 26 µM (inactive)
CCc1nc2c(sc3nc4c(cc32)COC(C)(C)C4)c(=O)n1Cc1ccco1	> 26 µM (inactive)
Cc1nc2ccc(Br)cc2c(=O)n1Cc1cccs1	> 26 µM (inactive)
CCOC(=O)c1c(-c2ccc(C)o2)csc1NC(=O)CSc1nncs1	13.6 µM
COc1ccc(-c2c(C)c3cc(O)ccc3oc2=O)cc1OC	> 26 µM (inactive)
COc1ccc(N2CCN(c3ncnc4c3cnn4-c3ccc(C)cc3C)CC2)cc1	> 26 µM (inactive)
COCCCn1c(Cc2csc(Nc3ccc(F)cc3)n2)nnc1SCC(N)=O	> 26 µM (inactive)
O=C1C2CC=CCC2C(=O)N1Cc1nnc(-c2ccc(Cl)cc2)o1 (stereo not drawn)	6.68 µM
O=C(CSc1nc2ccccc2c2nc3ccccc3n12)NCc1ccco1	10.1 µM
Cc1ccc(-c2c3c(=O)n(C)c(=O)n(C)c3cn2-n2cnnc2)cc1	15.1 µM
O=C(OCc1csc(-c2ccccc2)n1)c1cccs1	0.901 µM

— PubChem BioAssay AID602296 (Broad Institute, 2012)
